Consider four compounds from US20100317673A1, “N-HETEROCYCLIC-IMIDAZO[1,2-a]PYRIDINE-2-CARBOXAMIDE DERIVATIVES, THEIR PREPARATION AND THEIR THERAPEUTIC APPLICATION” (SANOFI-AVENTIS, priority 2008, published 2010).

The test concerns the target T1, mouse Nurr1 receptor (Mus musculus, UniProt Q06219).
T1 construct: a cell line (N2A) endogenously expressing the mouse Nurr1 receptor; host or cells: Neuro-2A (N2A) mouse neuroblastoma cells stably transfected with 8NBRE-luciferase
Description: In vitro activity on N2A cells (NBRE-luciferase reporter). As to conditions: N2A (Neuro-2A) cells endogenously expressing mouse Nurr1, stably transfected with 8NBRE-luciferase; 24 hours incubation. It is filed as cell-based. The procedure:
The activity of the compounds according to the invention was evaluated on a cell line (N2A) endogenously expressing the mouse Nurr1 receptor and stably transfected with the NOT binding response element (NBRE) coupled to the luciferase reporter gene. The EC50 values are between 0.01 and 1000 nM. The assays were carried out according to the procedure described below.
The Neuro-2A cell line comes from a standard commercial source (ATCC). The Neuro-2A clone was obtained, from a spontaneous tumour originating from an A albino mouse strain, by R. J Klebe et al. This Neuro-2A line is subsequently stably transfected with 8NBRE-luciferase. The N2A-8NBRE cells are cultured until confluence in 75 cm^2 culture flasks containing DMEM supplemented with 10% of foetal calf serum, 4.5 g/l of glucose and 0.4 mg/ml of geneticin. After a week of culture, the cells are recovered with 0.25% trypsin for 30 seconds and then resuspended in DMEM without phenol red, containing 4.5 g/l of glucose and 10% of Hyclone delipidized serum, and deposited into transparent-bottom 96-well white plates. The cells are deposited at a rate of 60 000 per well in 75 μl for 24 hours before the addition of the products. The products are applied in 25 μl and incubated for a further 24 hours. On the day of the measurement, an equivalent volume (100 μl) of Steadylite is added to each well and then left for a period of 30 minutes in order to obtain complete cell lysis and maximum signal production. The plates are subsequently measured in a luminescence counter for microplates after having been sealed with an adhesive film. The products are prepared in the form of a stock solution at 10^−2M and then diluted in 100% of DMSO. Each product concentration is prediluted in culture medium before incubation with the cells, thus containing 0.625% final concentration of DMSO.
For orientation: A reporter such as luciferase makes a cellular process visible.

T1 sequence (Q06219 whole entry): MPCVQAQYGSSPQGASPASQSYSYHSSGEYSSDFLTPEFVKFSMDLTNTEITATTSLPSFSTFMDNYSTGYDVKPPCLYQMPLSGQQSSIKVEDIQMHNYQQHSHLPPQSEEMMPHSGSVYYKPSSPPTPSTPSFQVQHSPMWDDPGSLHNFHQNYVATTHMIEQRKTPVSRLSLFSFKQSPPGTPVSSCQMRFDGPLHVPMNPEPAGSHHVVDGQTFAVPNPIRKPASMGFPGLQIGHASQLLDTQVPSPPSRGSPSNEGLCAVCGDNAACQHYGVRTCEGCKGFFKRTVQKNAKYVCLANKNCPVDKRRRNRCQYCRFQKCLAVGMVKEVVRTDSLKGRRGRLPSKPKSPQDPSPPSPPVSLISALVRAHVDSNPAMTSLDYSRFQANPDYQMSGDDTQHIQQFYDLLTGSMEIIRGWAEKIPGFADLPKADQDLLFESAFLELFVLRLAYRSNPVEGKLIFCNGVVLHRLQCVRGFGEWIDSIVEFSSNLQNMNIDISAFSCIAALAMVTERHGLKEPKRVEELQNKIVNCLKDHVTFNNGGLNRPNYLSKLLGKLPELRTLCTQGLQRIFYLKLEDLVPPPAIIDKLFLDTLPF

What is called EC50 is the midpoint of the concentration-response curve. Lower therefore signals higher potency in that assay. Turning to `O=C(Nc1ccccn1)c1cn2cc(Cl)ccc2n1` [Compound 4, 6-Chloro-N-(pyridin-2-yl)imidazo[1,2-a]pyridine-2-carboxamide], the EC50 came out at 2.2 nM.

Compound `O=C(Nc1ccccn1)c1cn2cc(-c3cccc(CO)c3)ccc2n1` [Compound 7, 6-[3-(Hydroxymethyl)phenyl]-N-(pyridin-2-yl)imidazo[1,2-a]pyridine-2-carboxamide] came in with an EC50 of 0.04 nM. The value for `CN(C)c1ccc2nc(C(=O)Nc3ccccn3)cn2c1` [Compound 8, 6-(Dimethylamino)-N-(pyridin-2-yl)imidazo[1,2-a]pyridine-2-carboxamide] was 0.5 nM; that for `CN(C)c1ccc2nc(C(=O)Nc3ccon3)cn2c1` [Compound 39, 6-(Dimethylamino)-N-(isoxazol-3-yl)imidazo[1,2-a]pyridine-2-carboxamide] was 10.5 nM.
